Series [1] concerns PKLR. The series can be described thus: PKLR protein level by western blot in steatosis-induced HepG2, 7-day drug treatment. It counts as cell-based. Particulars: steatosis-induced HepG2, 7 days of drug treatment, P<0.05, FIG. 2B. The method, then: WT HepG2 was included in this study and cultured by Roswell Park Memorial Institute (RPMI, R2405, Sigma Aldrich) 1640 Medium with 10% fetal bovine serum (FBS) and 1% penicillin-streptomycin (PS). To induce a steatosis model into WT HepG2 cells, high glucose Dulbecco's Modified Eagle Media (DMEM, D0822/D5671, Sigma-Aldrich) containing 10% FBS and 1% PS was used as medium for one week, together with 10 μg/mL insulin and 10 μM T0901317. All of cells were incubated in the incubator with 5% CO2 and 37° C. (Thermo SCIENTIFIC). Fresh medium was provided every two days.
As for drug-screening, different numbers of HepG2 cells were seeded for distinct experiments. More in details, 40,000 cells and 500,000 cells were used for 2-day-drug treatment in 96-well-plate and 6-well plate, respectively, while 80,000 cells and 300,000 cells were used for one-week drug treatment in 96-well plate and 6-well plate, respectively. Detailed drug dosages could be found in FIG. 5. Fresh medium was provided every two days.
Protein content levels were detected by western blot. After the respective treatment of drugs, the cell pellets were lysed in cell lytic M, followed by protein extraction from supernatant (10 min, 13,000r/min centrifuge). Extracted cell lysate was stored in −20° C. Proteins were quantified through Bovine albumin serum (BAS) standard curve with protein assay dye reagent (BIO-RAD). The proteins were separated by SDS-PAGE with 100v in 90 min by mini-protein TGX precast gels (4-15%, 15 wells, 15 μl/well, BIO-RAD), and then transfer to Mini PVDF transfer package through transfer system (Transfer-Turbo, BIO-RAD). After 30 min blocking with 5% skim milk in cold room (4° C.) and washing with TBST, membrane was cut by the size of interested proteins. Primary antibodies were added into the corresponding membrane sections for overnight binding. Then the membranes were washed with TBST, and the secondary antibodies were incubated for 1 h in cold room. The following antibody were used: (Goat pAb to Rb lg, ab205718, abcam; Rb pAb to beta-actin, ab8227, abcam; anti-pklr, HPA006653, SIGMA; Rb pAb to fatty acid synthase, ab99539, abcam). The bindings were imaged by immunostaining and machine (ImageQuant LAS 500). All antibodies were purchased from Abcam online, and βactin was used as global normalized protein. After measurement, the strength of signal for each protein was quantified by ImageJ. The background noise was removed, and all results were normalized by the levels of β-actin.
To further analyse the effect of these drugs on lipid accumulation via the DNL pathway, steatosis was induced to HepG2 by treating the cells with high glucose medium (DMEM), insulin and T0901317 (Hansmannel et al., 2006). […] Therefore, the effects of these two drugs on the de novo synthesis of lipids were investigated based on the steatosis-induced HepG2 model. […] Taken together, it was shown that BX-912 and JNK-IN-5A effectively alleviate the protein expression of PKLR and FASN as well as TG levels in HepG2 cell lines, and thus, it was decided to perform in vivo evaluations to test the effect of these two drugs.
(In general: In western blotting, separated proteins are transferred to a membrane and probed.)

Series [2] deals with Sprague Dawley male rats. Briefly: In vivo biosafety study: immunohistochemical 8-OH-dG examination of liver. On the set-up: species or system rat. The settings on record: 30 mg/kg oral, 7 days, CHOW. The method, then: In vivo biosafety studies. Healthy Sprague Dawley male rats (12 weeks old, 250-280 g) were obtained from Atatürk University Experimental Research Center (ATADEM, Erzurum Turkey) and housed under standard environmental conditions (temperature 20° C.-25° C., humidity 50±20% and 12-hour light/dark diurnal cycle). Food and water were available ad libitum. Rats were randomly separated into one control group and two experimental groups (30 mg/kg/day BX-912 or JNK-IN-5A, n=5). BX-912 and JNK-IN-5A were dissolved in DMSO and orally administrated using oral gavage for 7 days. The control group were received the same amount of vehicle solution only.
After 7 days, rats were anaesthetized, and blood samples were collected from the abdominal aorta for biochemical and haematological analysis. The plasma was separated and stored at −80° C. for further analysis. Major organs such as heart, kidney, liver, muscle, adipose, intestine (duodenum, ileum, jejunum), pancreas, colon, and stomach were collected from all the animals for further analysis. Selected organs were fixed in 10% neutral buffered formalin for histopathological examination.
Immunohistochemical examination. After deparaffinization, the slides were immersed in antigen retrieval solution (pH 6.0) and heated in microwave for 15 min to unmask the antigens. The sections were then dipped in 3% H2O2 for 10 min to block endogenous peroxidase activity. […]

For series [3], the system named is Pklr. The series can be described thus: In vivo efficacy study in rats: hepatic Pklr expression. The settings on record: rat animal study. Here is the method:
In vivo efficacy studies. […] The HSD group were treated with vehicle solution only.

For `O=C(Nc1cccc(Nc2ncc(Br)c(NCCc3cnc[nH]3)n2)c1)N1CCCC1` [BX-912, N-[3-[[5-bromo-4-[[2-(1H-imidazol-5-yl)ethyl]amino]-2-pyrimidinyl]amino]phenyl]-1-pyrrolidinecarboxamide], the “protein expression level of PKLR” value in series [1] is given as “significantly decreased”. Moreover, in series [2], the “8-OH-dG expression in liver tissues (IHC)” value is given as “negative”. Besides, in series [3], the “hepatic Pklr expression in vivo” value is “significantly decreased”.

Regarding `N#Cc1c(NC(=O)c2cccc3ccccc23)sc2c1CCCC2` [JNK-IN-5A, N-(3-cyano-4,5,6,7-tetrahydrobenzo [b]thien-2-yl)-1-naphthalenecarboxamide], the “protein expression level of PKLR” value in series [1] is given as “significantly decreased”. Further, in series [2], the “8-OH-dG expression in liver tissues (IHC)” value is “negative”. Besides, in series [3], the “hepatic Pklr expression in vivo” value is listed as “significantly decreased”.

These data come from patent publication US20240366560A1, “SMALL MOLECULE TREATMENT OF FATTY LIVER DISEASE AND HCC” (ScandiEdge Therapeutics AB, priority 2021, published 2024).
